Patent publication US7803930B2, “Antisense modulation of apolipoprotein B-expression” (Isis Pharmaceuticals, Inc., priority 2002, dated 2010)
In the oligonucleotide strings, read from the 5' end, every base follows the letter of its sugar. An asterisk marks phosphorothioate; unmarked linkages are phosphodiester. Other units and linkages are bracketed, terminal groups are in braces. A string of capitals states the bases alone. e = 2'-O-(2-methoxyethyl) (MOE); [5mC] = 5-methylcytosine; d = 2'-deoxy (DNA)

Assays:
[1] = tested on: rabbit apolipoprotein B mRNA; assay: Inhibition of rabbit apolipoprotein B mRNA levels in primary rabbit hepatocytes, real-time PCR; assay type: cell-based; design: % INHIB of rabbit apolipoprotein B mRNA levels: concentration or dose not given beside the values
From the text: Primary rabbit hepatocytes were purchased from Invitro Technologies (Gaithersburg, Md.) and maintained in Dulbecco's modified Eagle's medium (Gibco). When purchased, the cells had been seeded into 96-well plates for use in RT-PCR analysis and were confluent.
In accordance with the present invention, a series of oligonucleotides was designed to target different regions of rabbit apolipoprotein B, using published sequences (GenBank accession number X07480.1, incorporated herein as SEQ ID NO: 808, GenBank accession number M17780.1, incorporated herein as SEQ ID NO: 809, and a sequence was derived using previously described primers (Tanaka, Journ. Biol. Chem., 1993,268, 12713-12718) representing an mRNA of the rabbit apolipoprotein B, incorporated herein as SEQ ID NO: 810). “Target site” indicates the first (5′-most) nucleotide number on the particular target sequence to which the oligonucleotide binds. All compounds in Table 21 are chimeric oligonucleotides (“gapmers”) 20 nucleotides in length, composed of a central “gap” region consisting of ten 2′-deoxynucleotides, which is flanked on both sides (5′ and 3′ directions) by five-nucleotide “wings”. The wings are composed of 2′-methoxyethyl (2′-MOE)nucleotides. The internucleoside (backbone) linkages are phosphorothioate (P═S) throughout the oligonucleotide. All cytidine residues are 5-methylcytidines. The compounds were analyzed for their effect on rabbit apolipoprotein B mRNA levels in primary rabbit hepatocytes by quantitative real-time PCR as described in other examples herein. Primary rabbit hepatocytes were treated with 150 nM of the compounds in Table 21. For rabbit apolipoprotein B the PCR primers were: • forward primer: AAGCACCCCCAATGTCACC (SEQ ID NO: 811) • reverse primer: […] (SEQ ID NO: 812) and the PCR probe was: FAM-[…]-TAMRA (SEQ ID NO: 813) where FAM (PE-Applied Biosystems, Foster City, Calif.) is the fluorescent reporter dye) and TAMRA (PE-Applied Biosystems, Foster City, Calif.) is the quencher dye. Data are averages from two experiments. If present, “N.D.” indicates “no data”.
In accordance with the present invention, a subset of the antisense oligonuclotides in Example 42 was further investigated in dose-response studies. Treatment doses were 10, 50, 150 and 300 nM. ISIS 233160 (SEQ ID NO: 824), ISIS 233166 (SEQ ID NO: 830), ISIS 233172 (SEQ ID NO: 835), ISIS 233175 (SEQ ID NO: 838), and ISIS 233183 (SEQ ID NO: 846) were analyzed for their effect on rabbit apolipoprotein B mRNA levels in primary rabbit hepatocytes by quantitative real-time PCR as described in other examples herein.

[2] = tested on: human apolipoprotein B mRNA; assay: Inhibition of human apolipoprotein B mRNA levels in HepG2 cells, quantitative real-time PCR; assay type: cell-based; details: HepG2 cells
How it was run: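 HepG2 cells at 80% confluency were transfected with antisense oligonucleotide using 3.75 μg/mL Lipofectin in Opti-MEM for 4-7 h and harvested 16-24 h after treatment. Apolipoprotein B mRNA was measured by real-time RT-PCR and normalized to GAPDH or RiboGreen total RNA. Percent inhibition came from untreated-control standard curves.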

[3] = 50 nm oligonucleotide, variable deoxy gap position
[4] = 150 nm oligonucleotide, variable deoxy gap position
[5] = Table 17 variable gap, 50 nM, averages from three experiments
[6] = Table 17 variable gap, 150 nM, averages from three experiments

Substance	% Change in apolipoprotein B mRNA expression ([2]; 10 nM, 24 hour (Table 41))	% Change in apolipoprotein B mRNA expression ([2]; 50 nM, 24 hour (Table 41))	% Change in apolipoprotein B mRNA expression ([2]; 150 nM, 24 hour (Table 41))	% Change in apolipoprotein B mRNA expression ([2]; 50 nM, 24 hour (Table 40))	% Change in apolipoprotein B mRNA expression ([2]; 150 nM, 24 hour (Table 40))	also measured
233149 (antisense eT*eG*e[5mC]*eT*eT*dG*dG*dA*dG*dA*dA*dG*dG*dT*dA*eA*eG*eA*eT*e[5mC]) [compound 233149]						% INHIB of rabbit apolipoprotein B mRNA levels [1]: 0%
233150 (antisense eG*e[5mC]*eG*eT*eT*dG*dT*d[5mC]*dT*d[5mC]*d[5mC]*dG*dA*dT*dG*eT*eT*e[5mC]*eT*eG) [compound 233150]						% INHIB of rabbit apolipoprotein B mRNA levels [1]: 20%
308659 (antisense GCCTCAGTCTGCTTCGCACC; 9-10-1 2'-MOE gapmer, phosphorothioate, chemistry not fully specified) [compound 308659]						% INHIB 50 nm [2, 3]: 70%; % INHIB 150 nm [2, 4]: 93%
308660 (antisense TGGTAGCCTCAGTCTGCTTC; 2-10-8 2'-MOE gapmer, phosphorothioate, chemistry not fully specified) [compound 308660]						% INHIB 50 nm [2, 3]: 72%; % INHIB 150 nm [2, 4]: 92%
308661 (antisense AGTCTGCTTCGCGCCTTCTG; 2-10-8 2'-MOE gapmer, phosphorothioate, chemistry not fully specified) [compound 308661]						% INHIB 50 nm [2, 5]: 70%; % INHIB 150 nm [2, 6]: 91%
308662 (antisense TGGTAGCCTCAGTCTGCTTC; 8-10-2 2'-MOE gapmer, phosphorothioate, chemistry not fully specified) [compound 308662]						% INHIB 50 nm [2, 3]: 76%; % INHIB 150 nm [2, 4]: 83%
308663 (antisense AGTCTGCTTCGCGCCTTCTG; 8-10-2 2'-MOE gapmer, phosphorothioate, chemistry not fully specified) [compound 308663]						% INHIB 50 nm [2, 5]: 44%; % INHIB 150 nm [2, 6]: 84%
331022 (antisense GCCTCAGTCTGCTTCGCAC; sugars from the 5' end e5 d10 e4, all phosphorothioate, methylation of C not given here) [compound 331022]	−33%	−49%	−87%			
332769 (antisense GCCTCAGTCTGCTTCGCACC; all 2'-MOE, all phosphorothioate, methylation of C not given here) [compound 332769]				−11%	−14%	
332770 (antisense GCCTCAGTCTTCTTCGCACC; sugars from the 5' end e5 d10 e5, all phosphorothioate, methylation of C not given here) [compound 332770]				+7%	−22%	
332771 (antisense GCCTCAGTCTTATTCGCACC; sugars from the 5' end e5 d10 e5, all phosphorothioate, methylation of C not given here) [compound 332771]				+37%	+37%	
332772 (antisense GCCTCAGTATTATTCGCACC; sugars from the 5' end e5 d10 e5, all phosphorothioate, methylation of C not given here) [compound 332772]				+99%	+84%	
332773 (antisense GCCTCATTATTATTCGCACC; sugars from the 5' end e5 d10 e5, all phosphorothioate, methylation of C not given here) [compound 332773]				+75%	+80%	
332774 (antisense GCCTCATTATTATTAGCACC; sugars from the 5' end e5 d10 e5, all phosphorothioate, methylation of C not given here) [compound 332774]				+62%	+66%	
332775 (antisense GCCTCATTATTATTATCACC; sugars from the 5' end e5 d10 e5, all phosphorothioate, methylation of C not given here) [compound 332775]				−1%	+10%	
332776 (antisense GCCTAATTATTATTATCACC; sugars from the 5' end e5 d10 e5, all phosphorothioate, methylation of C not given here) [compound 332776]				+10%	+20%	
332777 (antisense GCCTCAGTCTGCTTCGCA; sugars from the 5' end e5 d10 e3, all phosphorothioate, methylation of C not given here) [compound 332777]	−27%	−53%	-80%			
332778 (antisense GCCTCAGTCTGCTTC; sugars from the 5' end e5 d10, linkages s4 o1 s9 (s phosphorothioate, o phosphodiester), methylation of C not given here) [compound 332778]	−11%	−20%	−58%			
332780 (antisense CCTCAGTCTGCTTCGCAC; sugars from the 5' end e4 d10 e4, all phosphorothioate, methylation of C not given here) [compound 332780]	−3%	−43%	−74%			
332781 (antisense CTCAGTCTGCTTCGCA; sugars from the 5' end e3 d10 e3, all phosphorothioate, methylation of C not given here) [compound 332781]	−9%	−35%	−60%			
332782 (antisense TCAGTCTGCTTCGC; all phosphorothioate, sugars by position and methylation of C not given here; 2'-MOE wings flank a DNA gap) [compound 332782]	−16%	−16%	−69%			
332784 (antisense GCCTCAGTCT; linkages s4 o1 s4 (s phosphorothioate, o phosphodiester), sugars by position and methylation of C not given here; 2'-MOE wings flank a DNA gap) [compound 332784]	+12%	−1%	+7%			
332785 (antisense GCTTCGCACC; linkages s4 o1 s4 (s phosphorothioate, o phosphodiester), sugars by position and methylation of C not given here; 2'-MOE wings flank a DNA gap) [compound 332785]	+5%	−2%	−4%			
ISIS 332770: ISIS 301012 derivative with a single thymidine to cytosine substitution in the center of the oligonucleotide (GCCTCAGTCTTCTTCGCACC; sugars from the 5' end e5 d10 e5, all phosphorothioate, methylation of C not given here)						potency relative to ISIS 301012 (fold less potent) ([2]; 50 or 150 nM, 24 hours): 3 fold
